Data set [1] in a line: FU plasma pharmacokinetics. Format: in vivo, human.
For data set [2] the following is noted: vorinostat with FOLFOX; cited from earlier work.

Each structure is given as a SMILES string.

Regarding `O=c1[nH]cc(F)c(=O)[nH]1` [FU, 5-fluorouracil], the “FU Cmax with vorinostat relative to without (times lower)” value in data set [1] (1,700 mg vorinostat once daily, cycle 2 vs cycle 1, statistically significant) is 0.82 times. For the same compound, the “Change in FU clearance with the addition of vorinostat” value in data set [1] (once-daily or twice-daily MTD) was “did not observe any decrease”. In data set [2], the “FU clearance at higher vorinostat dose-levels” value was “lower FU clearance”.

The values are drawn from article PMC2931804 (Clinical cancer research : an official journal of the …, 2010).
